In patent US12303508B2, “Combinatory treatment strategies of cancer based on RNA polymerase I inhibition” (THE JOHNS HOPKINS UNIVERSITY, priority 2016, dated 2025):

Tests used:
[1] = tested on: MR49F cells; assay: Cleaved caspase-3 and DNA staining, MR49F; assay type: cell-based; details: for massive apoptotic response, single treatment: either treatment alone
Description: (§1) The inset bars represent sub-G1 cells. (B) The percentage of sub-G1 cells from A is plotted over time. (C) Staining of the cells for the apoptosis marker caspase-3. Immunofluorescence and Epifluorescence Microscopy. Cells grown on coverslips were fixed in 3.5% paraformaldehyde, permeabilized with 0.5% NP-40 and blocked with 3% BSA. Cells were stained for LC3-II and cleaved caspase-3 (Cell Signaling). Alexa 488-conjugated secondary antibodies were from Invitrogen. DNA was counterstained with DAPI (Invitrogen). Images were captured using Axioplan2 fluorescence microscope (Zeiss) equipped with AxioCam HRc CCD-camera and AxioVision 4.5 software using EC Plan-Neofluar 20× or 40× objectives (Zeiss).

[2] = tested on: LNCaP prostate cancer cells; assay: Cell viability (CellTiter-Blue) with Chou-Talalay combination index, LNCaP; assay type: cell-based; details: in combination with BMH-21, LNCaP cells, 48 h
Procedure: Cell viability was measured using Cell TiterBlue, and the mean of triplicate samples is shown. (B) Chou-Talalay combination index (CI) analysis was used to determine the drug interactions (blue curve). CI<1 denotes synergism. Red bar, C=1 additive effect. Fraction dead cells denotes the combinatory drug activity where 1 represents 100% kill.
(§2) Cells and Viability Assay. A375 melanoma and LNCaP prostate cancer cells were from American Type Culture Collection. HCT116 p53+/+ and −/− cells were from Dr. F. Bunz. MR49F cells were from Dr. M. Gleave. Cells were maintained at 37° C. in a humidified atmosphere containing 5% CO2. Cells were plated in 96-well plates at a density of 3,000 cells/well in triplicate and incubated for 48 h with the compounds. Viability was determined using CellTiter-Blue Cell Viability Assay (Promega) according to manufacturer's instructions. Chou-Talaley algorithm (Compusyn) was used to define the combination index (CI) where CI<1 denotes synergism, CI>1 denotes antagonism and CI=1 is additive. Effect denotes the combinatory drug activity where 1 represents 100% kill.

[3] = tested on: LNCaP cells; assay: Cleaved caspase-3 and DNA staining, LNCaP; assay type: cell-based; details: for massive apoptotic response, single treatment: either treatment alone
Description: as §1

[4] = tested on: MR49F enzalutamide-resistant prostate cancer cells; assay: Cell viability (CellTiter-Blue) with Chou-Talalay combination index, MR49F; assay type: cell-based; details: in combination with BMH-21, constant concentrations, 48 h, CI<1 synergism
Procedure: (§3) Cell viability was measured using Cell TiterBlue, and Chou-Talalay Combination Index analysis was performed. CI<1 denotes synergism. Effect denotes the combinatory drug activity where 1 represents 100% kill.
(§4) Cells were maintained at 37° C. in a humidified atmosphere containing 5% CO2. […] Effect denotes the combinatory drug activity where 1 represents 100% kill.

[5] = tested on: tumor xenograft; details: previously demonstrated; cited from earlier work
[6] = tested on: RPA194; details: previously demonstrated; cited from earlier work
[7] = tested on: NCI60 cancer cell lines; details: previously demonstrated; cited from earlier work
[8] = tested on: HCT116 p53−/− colon carcinoma cells; assay: Cell viability (CellTiter-Blue) with Chou-Talalay combination index, HCT116 p53-/-; assay type: cell-based; details: in combination with BMH-21, HCT116 p53−/− cells, 48 h
Procedure: (§5) Data represent N=2 biological assays each conducted in triplicate. […] Chou-Talalay plots are shown. Data represents N=2 biological assays each conducted in triplicate.
as §2
(§6) The inventors tested these combinations in three different cell lines (A375 melanoma cells, HCT116 p53+/+ and HCT116 p53−/− colon carcinoma cells).

[9] = tested on: A375 human melanoma cells; assay: Cell viability (CellTiter-Blue) with Chou-Talalay combination index, A375; assay type: cell-based; details: in combination with BMH-21, constant concentrations, 48 h, CI<1 synergism, CI>1 antagonism
Procedure: as §4

[10] = tested on: HCT116 p53+/+ colon carcinoma cells; assay: Cell viability (CellTiter-Blue) with Chou-Talalay combination index, HCT116 p53+/+; assay type: cell-based; details: in combination with BMH-21, HCT116 p53+/+ cells, 48 h
Procedure: as §5, §2, §6

[11] = tested on: LC3-II in MR49F cells; assay: LC3-II western blotting and immunofluorescence staining; assay type: cell-based; details: 24 h
Procedure: as §3
as §1, with “Immunofluorescence” for “The inset bars represent sub-G1 cells. (B) The percentage of sub-G1 cells from A is plotted over time. (C) Staining of the cells for the apoptosis marker caspase-3. Immunofluorescence”
Immunoblotting. Cells were lysed in 0.5% NP-40 buffer (25 mM Tris-HCl, pH 8.0, 120 mM NaCl, 0.5% NP-40, 4 mM NaF, 100 μM Na3VO4, 100 KIU/ml aprotinin, 10 μg/ml leupeptin) or RIPA lysis buffer. Proteins were separated on SDS-PAGE, blotted, probed for respective proteins and detected using ECL (Amersham). The primary antibodies used for detection were LC3-II and cleaved caspase-3 (Cell Signaling). HRP-conjugated secondary antibodies were from DAKO or Santa Cruz Biotechnology.

[12] = BMH-21 plus Avasimibe combination

Compound | massive apoptotic response, single treatment [1] | massive apoptotic response, single treatment [3] | drug interaction with BMH-21 (Chou-Talalay combination index on cell viability) [4] | drug interaction with BMH-21 (Chou-Talalay combination index on cell viability) [8] | drug interaction with BMH-21 (Chou-Talalay combination index on cell viability) [9] | drug interaction with BMH-21 (Chou-Talalay combination index on cell viability) [10] | further results
CC(C)c1cc(C(C)C)c(CC(=O)NS(=O)(=O)Oc2c(C(C)C)cccc2C(C)C)c(C(C)C)c1 [Avasimibe] | not observed | not observed | prominent synergistic activities |  |  |  | apoptosis by cleaved caspase-3 and DNA staining, combination [1, 12]: prominent cell apoptosis; drug interaction with BMH-21 (cell viability, Chou-Talalay combination index) [2]: synergistic cancer cell death; apoptosis by cleaved caspase-3 and DNA staining, combination [3, 12]: prominent cell apoptosis
CN(C)CCNC(=O)c1cccn2c(=O)c3cc4ccccc4cc3nc12 [BMH-21, 12H-Benzo[g]pyrido[2,1-b]quinazoline-4-carboxamide, N-[2(dimethylamino)ethyl]-12-oxo] | not observed | not observed |  |  |  |  | tumor burden in mouse xenograft assays [5]: reduced tumor burden; degradation of RPA194 [6]: causes proteasome-mediated degradation of RPA194; anticancer activity in NCI60 cancer cell lines [7]: broad and potent anticancer activity
Cn1ncnc1[C@H]1c2n[nH]c(=O)c3cc(F)cc(c23)N[C@@H]1c1ccc(F)cc1 [BMN-673] |  |  |  | synergistically | synergistically | synergistically | 
CCN(CC)CCCC(C)Nc1ccnc2cc(Cl)ccc12 (centres unmarked) [chloroquine] |  |  |  |  |  |  | number of LC3-II puncta ([11]; co-treatment with BMH-21 (1 μM)): significant increase; expression of LC3-II (marker for autophagy inhibition) ([11]; combination with BMH-21 (1 μM), western blotting and immunofluorescence): increased
O=C(c1cc(Cc2n[nH]c(=O)c3ccccc23)ccc1F)N1CCN(C(=O)C2CC2)CC1 [olaparib, 4-[[3-[4-(cyclopropanecarbonyl)piperazine-1-carbonyl]-4-fluorophenyl]methyl]-2H-phthalazin-1-one] |  |  |  | synergistically | synergistically | synergistically | 
Bafilomycin |  |  | synergistic cell death |  |  |  | 
